In one series the test system is HT-29 cells. The experiment in a line: MTT cytotoxicity in HT-29 cells. As to conditions: for IC50: Homo sapiens, MTT. The format is cell-based, Human.
For a further series, the system named is MDA-MB-231 cells. The experiment in a line: MTT cytotoxicity in MDA-MB-231 cells. The series is classed as cell-based. Particulars: Homo sapiens. In short, it runs like this:
(§1)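 Standard MTT assay: cells seeded 24 h, treated with compounds at 6.25–100 μM in triplicate, then grown for 96 h total. Run under normoxia (air throughout) or hypoxia (95% N2 for 24 h, then 72 h normoxia). MTT added for 4 h, formazan dissolved in DMSO, absorbance read at 570 nm.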

The subject of the next series is HCT-116 cells. The series is described as follows: MTT cytotoxicity in HCT-116 cells. The format is cell-based. As to conditions: Homo sapiens. Summed up:
as §1

The next series relates to A549 cells. The series is described as follows: MTT cytotoxicity in A549 cells. The format is cell-based. As to conditions: Homo sapiens. In short, it runs like this:
as §1

The subject of series [1] is NO release of LPS-induced microglial N9 cells. The series is described as follows: Inhibition of NO release in LPS-induced N9 cells (Griess). The format is cell-based, murine. As to conditions: Mus musculus, 1 μg/mL LPS for 48 h, NO level in medium. In short, it runs like this:
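Log-phase N9 microglia were grown adherent for 24 h, switched to serum-free medium, then given test compounds under LPS stimulation. Nitrite in supernatant was quantified by Griess reaction at 540 nm; MTT-IC20 was determined to exclude cytotoxic effects.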

Series [2] is described as follows: MTT cytotoxicity in N9 cells. As to conditions: mouse, N9 microglial cells, cytotoxic activity. The series is classed as cell-based, murine. In short, it runs like this:
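N9 microglial cells seeded at 1.5–3 × 10^4 cells/mL, grown 24 h, then exposed to compounds at 6.25–100 μM in triplicate for 96 h. Viability by MTT (4 h), formazan dissolved in DMSO, absorbance at 570 nm; MTT-IC20 derived.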

For series [3], the system named is TNF-α release of LPS-induced N9 cells. The experiment in a line: TNF-α release of LPS-induced N9 cells (cytokine kit). The series is classed as cell-based, murine. Particulars: compound 1 μM, LPS 1 μg/mL, 48 h; for inhibition at 1 µM: Mus musculus. The protocol:
(§2) N9 cells, which were in the logarithmic phase, were incubated for 24 h by adherent culture. Subsequently, the medium was changed to new one without serum. The cells were treated with different concentration of tested compounds. After specific time in the LPS condition, the supernatants were collected and analyzed.
(§3) The secreted level of TNF-α and IL-6 was measured using mouse Th1/Th2/Th17 Cytokine Kit, purchased from BD Pharningen. The data was analyzed by FCAP Array v3.0. IL-2, IL-4, IL-10, IL-17A, and IFN-γ were not detected in the experiment.

In series [4] the test system is IL-6 release of LPS-induced N9 cells. The series is described as follows: IL-6 release of LPS-induced N9 cells (cytokine kit). The series is classed as cell-based, murine. As to conditions: compound 1 μM, LPS 1 μg/mL, 48 h; for inhibition at 1 µM: Mus musculus. On the procedure:
as §2, §3

Series [5] is described as follows: NO capture analysis with sodium nitroprusside (Griess). Particulars: 0.01-10 μM compound, 0.5 mM SNP solution, 1 h, room temperature. The protocol: Sodium nitroprusside (SNP) is a NO donor. In this experiment, the reason of the DCH reducing NO level was preliminary explored. […] That means the main reason of the NO level reduction is due to species-specific effect.
SNP was dissolved in PBS to prepare the 100 mM stock solution. In this experiment, SNP solution of […] was added to 975 μL PBS solution which included different concentration of tested compounds. After 60 min under r.t. condition, the concentration of NO2^− was tested using Griess assay.
6l (0.01 μM, 0.1 μM, 1 μM, and 10 μM) or 5n (0.01 μM, 0.1 μM, 1 μM, and 10 μM) was added to a concentration of 0.5 mM SNP solution. […] Data were shown as mean ± SD. *** p < 0.001 compared with control group.

Where [6] appears, read: HT-29, hypoxia 24 h then normoxia 72 h, read-out: IC50 HT-29 Hypoxia.
Setting [7] is: HT-29, normoxia 96 h, read-out: IC50 HT-29 Normoxia.
Setting [8] is: MDA-MB-231, hypoxia 24 h then normoxia 72 h, read-out: IC50 MDA-MB-231 Hypoxia.
Where [9] appears, read: MDA-MB-231, normoxia 96 h, read-out: IC50 MDA-MB-231 Normoxia.
[10] abbreviates: HCT-116, hypoxia 24 h then normoxia 72 h, read-out: IC50 HCT-116 Hypoxia.
Where [11] appears, read: HCT-116, normoxia 96 h, read-out: IC50 HCT-116 Normoxia.
Where [12] appears, read: A549, hypoxia 24 h then normoxia 72 h, read-out: IC50 A549 Hypoxia.
[13] abbreviates: A549, normoxia 96 h, read-out: IC50 A549 Normoxia.

Results on 4 molecules are retold here after publication PMC6539525, “Design, Synthesis, and Mechanism of Dihydroartemisinin–Coumarin Hybrids as Potential Anti-Neuroinflammatory Agents” (Molecules, 2019).

Where two headings read alike, the source gives them in different places.

Turning to `C[C@H]1[C@@H](OCCc2cn(Cc3cc4cc(Cl)ccc4oc3=O)nn2)O[C@@H]2O[C@@]3(C)CC[C@H]4[C@H](C)CC[C@@H]1[C@@]24OO3` [2c, 6-chloro-3-((4-(2-((10S)-dihydroartemisininoxy)ethyl)-1H-1,2,3-triazol-1-yl)-methyl)-2H-1-chromen-2-one], the melting point is 138 to 140 °C. Besides, the IC50 with HT-29 cells (setting [6]) came out at 19.6 µM. The IC50 in the series with HT-29 cells (setting [7]) came to 17.5 µM. Also, the IC50 in the series on MDA-MB-231 cells (setting [8]) is 32.5 µM. In addition, in the series on MDA-MB-231 cells (setting [9]), the IC50 was found to be 44 µM. In addition, the IC50 in the series with HCT-116 cells (setting [10]) is 64.4 µM. Further, the IC50 in the series with HCT-116 cells (setting [11]) was 49.5 µM. Moreover, the IC50 with A549 cells (setting [12]) came out at 66.9 µM. Further, the IC50 with A549 cells (setting [13]) turned out to be 87.2 µM. Further, half-maximal inhibition in series [1] (IC50) was put at 2660 nM. Moreover, the IC20 in [2] was more than 10 µM. In [3], this molecule displayed an inhibition at 1 µM of 32.1% and a TNF-α of 3077.03 ± 375.48 pg/mL. In addition, in [4], the inhibition at 1 µM was 26.4% and the IL-6 is reported as 850.24 ± 112.47 pg/mL.
In the case of `Cc1ccc2c(OCc3cn(CCO[C@H]4O[C@@H]5O[C@@]6(C)CC[C@H]7[C@H](C)CC[C@@H]([C@H]4C)[C@@]57OO6)nn3)cc(=O)oc2c1C` [5n], the melting point fell in the range of 91 to 93 °C. The “cell viability of HT-29 cells” value with HT-29 cells (6.25-100 μM for 48 h, MTT staining) is “decreased in a dose-dependent manner”. Also, in the series on HT-29 cells (setting [6]), the IC50 stood at 8.9 µM. For the same molecule, the IC50 with HT-29 cells (setting [7]) came out at 10.2 µM. Further, the IC50 in the series on MDA-MB-231 cells (setting [8]) worked out at 11.7 µM. Besides, the IC50 in the series on MDA-MB-231 cells (setting [9]) was 11 µM. The IC50 in the series on HCT-116 cells (setting [10]) was 32.9 µM. The IC50 in the series on HCT-116 cells (setting [11]) came to 25.6 µM. Also, in the series on A549 cells (setting [12]), the IC50 worked out at 2.44 µM. Also, the IC50 in the series with A549 cells (setting [13]) was 2.11 µM. The molecule further displayed an IC50 in series [1] of 220 nM. In addition, the IC20 in [2] is 2.44 µM. In series [3], this molecule returned an inhibition at 1 µM of 22% and a TNF-α of 3508.08 ± 368.72 pg/mL. In series [4], this molecule showed an inhibition at 1 µM of 43.1% and an IL-6 of 656.75 ± 79.49 pg/mL. Moreover, the “NO radical scavenging activity” value in series [5] is given as “had NO radical scavenging activity”.
`Cc1cc(C)c2c(OCc3cn(CCCO[C@H]4O[C@@H]5O[C@@]6(C)CC[C@H]7[C@H](C)CC[C@@H]([C@H]4C)[C@@]57OO6)nn3)cc(=O)oc2c1` [6l] gave a melting point of 86 to 88 °C. Moreover, the IC50 with HT-29 cells (setting [6]) is 3.4 µM. The IC50 in the series on HT-29 cells (setting [7]) was found to be 8.41 µM. The IC50 in the series with MDA-MB-231 cells (setting [8]) stood at 6.85 µM. Also, in the series with MDA-MB-231 cells (setting [9]), the IC50 turned out to be 1.17 µM. In addition, the IC50 in the series on HCT-116 cells (setting [10]) was 27.9 µM. Moreover, the IC50 in the series with HCT-116 cells (setting [11]) was determined as 26.9 µM. The IC50 in the series on A549 cells (setting [12]) turned out to be 9.78 µM. Besides, in the series on A549 cells (setting [13]), the IC50 was determined as 6.88 µM. For the same molecule, the IC50 in series [1] is 520 nM. The IC20 in series [2] is more than 10 µM. Besides, the “NO radical scavenging activity” value in series [5] is listed as “had NO radical scavenging activity”.
Take `Cc1ccc2oc(=O)cc(OCc3cn(CCCO[C@H]4O[C@@H]5O[C@@]6(C)CC[C@H]7[C@H](C)CC[C@@H]([C@H]4C)[C@@]57OO6)nn3)c2c1` [6p]: the melting point was 80 to 82 °C. The IC50 with HT-29 cells (setting [6]) amounted to 12.5 µM. In addition, the IC50 in the series with HT-29 cells (setting [7]) was 7.49 µM. Further, the IC50 in the series on MDA-MB-231 cells (setting [8]) was 10.3 µM. Besides, in the series on MDA-MB-231 cells (setting [9]), the IC50 turned out to be 22.1 µM. Besides, in the series with HCT-116 cells (setting [10]), the IC50 came out at 38.1 µM. Further, in the series on HCT-116 cells (setting [11]), the IC50 worked out at 35.3 µM. The IC50 in the series with A549 cells (setting [12]) was found to be 18.8 µM. Further, the IC50 with A549 cells (setting [13]) came out at 18.9 µM. This molecule yielded an IC50 in [1] of 1420 nM. Besides, in series [2], the IC20 is more than 10 µM. In series [3], this molecule had an inhibition at 1 µM of 23.4% and a TNF-α of 3451.29 ± 646.50 pg/mL. In series [4], this molecule showed an inhibition at 1 µM of 35.2% and an IL-6 of 747.80 ± 125.56 pg/mL.
